This is an account of results in ChEMBL document CHEMBL3627658, “Novel concept of enzyme selective nicotinamide adenine dinucleotide (NAD)-modified inhibitors based on enzyme taxonomy from the diphosphate conformation of NAD” (Bioorg Med Chem Lett, 2015).

pKi: −log10 of the molar value.

Test [1] in a line: Inhibition of yeast ADH by Michaelis constant analysis. Further details: species or system Saccharomyces cerevisiae.
A short description of test [2]: Inhibition of Thermoanaerobacter brockii ADH by Michaelis constant analysis.
Test [3] is described as follows: Inhibition of Leuconostoc mesenteroides D-LDH by Michaelis constant analysis.
The nature of test [4]: Inhibition of pig heart LDH by Michaelis constant analysis. The arrangement: species or system Sus scrofa.
The nature of test [5]: Inhibition of pig heart MDH by Michaelis constant analysis. Further details: species or system Sus scrofa.
Another test is filed under the species Gallus gallus. Nature of the test: Inhibition of chicken liver NAD kinase assessed as residual activity relative to control.

With `NC(=O)c1csc([C@@H]2O[C@H](COC(=O)CCC(=O)OC[C@H]3O[C@@H](n4cnc5c(N)ncnc54)[C@H](O)[C@@H]3O)[C@@H](O)[C@H]2O)n1`, the negative-log Ki (pKi) in test [1] is 2.44; in test [2], 2.14; in test [3], 1.70; in test [4], 2.57; in test [5], 2.74. For the same molecule, in the test listed under Gallus gallus, the Activity was found to be 64%.

With `NC(=O)c1csc([C@@H]2O[C@H](COC(=O)[C@@H]3CCCC[C@H]3C(=O)OC[C@H]3O[C@@H](n4cnc5c(N)ncnc54)[C@H](O)[C@@H]3O)[C@@H](O)[C@H]2O)n1`, the negative logarithm of the Ki (pKi) in test [1] was 3.21; in test [2], 3.15; in test [3], 2.00; in test [4], 3.10; in test [5], 3.15. Further, the Activity in the test listed under Gallus gallus stood at 81%.

With `NC(=O)c1csc([C@@H]2O[C@H](COC(=O)[C@H]3CCCC[C@@H]3C(=O)OC[C@H]3O[C@@H](n4cnc5c(N)ncnc54)[C@H](O)[C@@H]3O)[C@@H](O)[C@H]2O)n1`, the pKi in test [1] was 2.59; in test [2] it was 2.15; in test [3], 1.62; in test [4], 2.41; in test [5], 2.48. Also, the Activity in the test filed under Gallus gallus was determined as 60%.

A word on the pKi: it is the Ki on a negative log10 scale, so that one unit is a factor of ten.
